The results in this text go back to ChEMBL document CHEMBL3407345, “Synthesis and biological evaluation of pyridazino[1',6':1,2]pyrido[3,4-b]indolinium and pyridazino[1,6-a]benzimidazolium salts as anti-inflammatory agents” (Eur J Med Chem, 2015).

A short description of data set [1]: Toxicity against human THP1 cells assessed as cell viability at 10 uM incubated for 24 hrs by propidium iodide staining based flow cytometry. The note with it: thp-1, 24 h. On the technique in general: In flow cytometry, cells or beads pass a laser one at a time.
Data set [2] can be described thus: Toxicity against LPS-stimulated human THP1 cells assessed as cell viability at 10 uM incubated for 24 hrs by propidium iodide staining based flow cytometry. The settings on record: thp-1, 24 h.
A short description of data set [3]: Anti-inflammatory activity in human THP1 cells assessed as inhibition of LPS-stimulated TNFalpha production at 1 uM incubated for 24 hrs followed by further stimulation with LPS during last 4 hrs by ELISA method. Type of data set: functional. The settings on record: THP-1. On the technique in general: In an ELISA, binding on a coated surface is turned into a signal by an enzyme label.

Data set [4] in a line: Anti-inflammatory activity in human THP1 cells assessed as inhibition of LPS-stimulated TNFalpha production at 5 uM incubated for 24 hrs followed by further stimulation with LPS during last 4 hrs by ELISA method. Type of data set: functional. The settings on record: THP-1.
Data set [5] in a line: Anti-inflammatory activity in human THP1 cells assessed as inhibition of LPS-stimulated TNFalpha production at 10 uM incubated for 24 hrs followed by further stimulation with LPS during last 4 hrs by ELISA method. Type of data set: functional. The settings on record: THP-1.
The nature of data set [6]: Anti-inflammatory activity in human THP1 cells assessed as inhibition of LPS-stimulated TNFalpha production at 25 uM incubated for 24 hrs followed by further stimulation with LPS during last 4 hrs by ELISA method. The note with it: THP-1. Type of data set: functional.
Data set [7] can be described thus: Anti-inflammatory activity in human THP1 cells assessed as inhibition of LPS-stimulated TNFalpha production incubated for 24 hrs followed by further stimulation with LPS during last 4 hrs by ELISA method. Type of data set: functional, cell-based. The note with it: THP-1.
Data set [8] can be described thus: Toxicity against LPS-stimulated human THP1 cells assessed as cell viability at 10 uM incubated for 24 hrs by propidium iodide staining based flow cytometry relative to control. More on the design: species or system THP-1. The note with it: read-out: Activity.
Data set [9] can be described thus: Anti-inflammatory activity in human THP1 cells assessed as inhibition of LPS-stimulated TNFalpha production at 50 uM incubated for 24 hrs followed by further stimulation with LPS during last 4 hrs by ELISA method. The settings on record: THP-1. Type of data set: functional.
Data set [10] in a line: Anti-inflammatory activity in human THP1 cells assessed as inhibition of LPS-stimulated TNFalpha production at 100 uM incubated for 24 hrs followed by further stimulation with LPS during last 4 hrs by ELISA method. Type of data set: functional. The settings on record: THP-1.
The target in data set [11] is T1, Tumor necrosis factor receptor superfamily member 1A (Homo sapiens, UniProt P19438).
T1 sequence (P19438 whole entry): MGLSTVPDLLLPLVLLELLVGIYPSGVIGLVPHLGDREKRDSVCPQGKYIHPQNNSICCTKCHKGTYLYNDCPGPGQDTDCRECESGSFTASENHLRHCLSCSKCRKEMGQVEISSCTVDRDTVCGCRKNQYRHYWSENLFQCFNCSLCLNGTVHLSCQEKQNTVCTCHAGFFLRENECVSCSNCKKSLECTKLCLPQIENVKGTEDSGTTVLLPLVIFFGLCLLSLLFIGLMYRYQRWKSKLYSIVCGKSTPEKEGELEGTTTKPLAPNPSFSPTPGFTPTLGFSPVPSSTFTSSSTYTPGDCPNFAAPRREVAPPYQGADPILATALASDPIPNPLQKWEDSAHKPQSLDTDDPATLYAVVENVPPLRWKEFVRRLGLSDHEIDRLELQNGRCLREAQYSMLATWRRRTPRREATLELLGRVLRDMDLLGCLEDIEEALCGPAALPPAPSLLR
Description: Inhibition of TNFR1 (unknown origin).

The nature of data set [12]: Anti-inflammatory activity in human THP1 cells assessed as inhibition of LPS-stimulated TNFalpha production at 0.1 uM incubated for 24 hrs followed by further stimulation with LPS during last 4 hrs by ELISA method. Type of data set: functional. The note with it: THP-1.

As usually defined, the inhibition is the relative decrease from the control value, in per cent. One may read the IC50 as the point on the concentration scale where inhibition reaches its midpoint. `CCc1cc2c3c(cc[n+]2nc1CC)c1ccc(OC)cc1n3CCCI.[I-]`: the Activity result in data set [1] and in [2] was “Non-toxic” each time. In [3], the inhibition at 1 µM is 11%. Also, in [4], the inhibition at 5 µM came to 36%. Also, in [5], the inhibition at 10 µM stood at 72%. Besides, the inhibition at 25 µM in data set [6] was found to be 79%. For the same compound, the IC50 in [7] was determined as 9.88 µM. Also, the viability at 24 h, 10 µM in data set [8] was 63.3%.
For `CCc1cc2c3[nH]c4c([N+](=O)[O-])cccc4c3cc[n+]2nc1CC.Cc1cc(C)cc(CS(=O)(=O)[O-])c1`, the Activity entry in data set [1] and in [2] was “Non-toxic” throughout. The inhibition at 1 µM in data set [3] stood at 44%. For the same compound, the inhibition at 5 µM in [4] stood at 56%. Moreover, in data set [5], the inhibition at 10 µM stood at 29%. Also, the inhibition at 25 µM in data set [6] stood at 47%. Further, in data set [8], the viability at 24 h, 10 µM was determined as 79.4%.
As for `C#CCCCn1c2cc(OC)ccc2c2cc[n+]3nc4c(cc3c21)-c1cccc2cccc-4c12.Cc1cc(C)cc(CS(=O)(=O)[O-])c1`, the Activity result in data set [1] and in data set [2] was “Non-toxic” throughout. In addition, the inhibition at 10 µM in data set [5] was 94%. For the same compound, the viability at 24 h, 10 µM in [8] was 0%.
For the compound `CCc1cc2c3c(cc[n+]2nc1CC)c1ccc(OC)cc1n3CC(=O)O.Cc1cc(C)cc(CS(=O)(=O)[O-])c1`, the Activity entry in data set [1] and in [2] was “Non-toxic” each time. In addition, the inhibition at 10 µM in data set [5] was 38%. Further, the inhibition at 25 µM in [6] turned out to be 29%. In addition, the inhibition at 50 µM in data set [9] turned out to be 35%. In [10], the inhibition at 100 µM was determined as 40%. Further, the viability at 24 h, 10 µM in [8] was determined as 93%.
With `CCc1cc2c3c(cc[n+]2nc1CC)c1ccc(OCc2ccccc2)cc1n3C(=O)OC(C)(C)C.Cc1cc(C)cc(CS(=O)(=O)[O-])c1`, the Activity result in data set [1] and in data set [2] was “Non-toxic” in each case. Besides, the inhibition at 10 µM in data set [5] was found to be 94%. Also, the viability at 24 h, 10 µM in data set [8] was 33%.
On to `O=C1NC2c3ccccc3C(=O)N2c2ccccc21` (stereo not given), for which the IC50 in data set [7] amounted to 9.33 µM.
Turning to `CCc1cc2c3[nH]c4c(N)cccc4c3cc[n+]2nc1CC.Cl.Cl`, the Activity result in data set [1] and in data set [2] was “Non-toxic” in each case. The inhibition at 1 µM in [3] was found to be 13.3%. The inhibition at 5 µM in [4] was -13.4%. In addition, the inhibition at 10 µM in [5] was found to be 88%. Besides, the viability at 24 h, 10 µM in [8] stood at 65%.
As for `Cc1ccc(C2=Cc3ccccc3C3N(C)C(=O)c4ccccc4N23)cc1` (stereo not given), the inhibition at 10 µM in [5] came out at 47%.
Turning to `CCc1cc2c3c(cc[n+]2nc1CC)c1ccc(OC)cc1n3CCCC#CC#CCCCn1c2cc(OC)ccc2c2cc[n+]3nc(CC)c(CC)cc3c21.Cc1cc(C)cc(CS(=O)(=O)[O-])c1.Cc1cc(C)cc(CS(=O)(=O)[O-])c1`, the Activity result in [1] and in data set [2] was “Non-toxic” in each case. The inhibition at 10 µM in data set [5] amounted to 34%. Besides, the viability at 24 h, 10 µM in [8] worked out at 9.54%.
Take `C#CCCCn1c2cc(OC)ccc2c2cc[n+]3nc(-c4ccco4)c(-c4ccco4)cc3c21.Cc1cc(C)cc(CS(=O)(=O)[O-])c1`: the Activity result in data set [1] and in [2] was “Non-toxic” each time. Further, the inhibition at 10 µM in data set [5] turned out to be 87%. Also, the viability at 24 h, 10 µM in data set [8] turned out to be 0%.
For `CCc1cc2c3[nH]c4ccc(Br)cc4c3cc[n+]2nc1CC.Cc1cc(C)cc(CS(=O)(=O)[O-])c1`, the Activity entry in data set [1] and in data set [2] was “Non-toxic” in each case. The inhibition at 10 µM in [5] worked out at 89%. For the same compound, the viability at 24 h, 10 µM in data set [8] is 3.76%.
Take `CCOC(=O)Cn1c2cc(OC)ccc2c2cc[n+]3nc(CC)c(CC)cc3c21.Cc1cc(C)cc(CS(=O)(=O)[O-])c1`: the Activity entry in data set [1] and in data set [2] was “Non-toxic” each time. Also, the inhibition at 1 µM in data set [3] was 51%. Also, the inhibition at 5 µM in data set [4] came out at 67%. For the same compound, the inhibition at 10 µM in data set [5] was found to be 45%. For the same compound, the inhibition at 25 µM in data set [6] was 94%. Also, in data set [7], the IC50 amounted to 11.5 µM. Also, the viability at 24 h, 10 µM in data set [8] amounted to 89.7%.
Consider `Cc1cc(C)cc(CS(=O)(=O)[O-])c1.O=C(O)CCCn1c2ccccc2[n+]2nc3c(cc12)-c1cccc2cccc-3c12`, for which the Activity result in data set [1] and in [2] was “Non-toxic” in each case. Also, in [5], the inhibition at 10 µM was 19%. For the same compound, the inhibition at 25 µM in data set [6] came to 47%. Further, the inhibition at 50 µM in [9] is 70%. Moreover, the inhibition at 100 µM in data set [10] amounted to 85%. The IC50 in data set [7] is 39.2 µM. In addition, the viability at 24 h, 10 µM in data set [8] came to 86%.
With `CN(C)CCC[N+](C)(C)CCCn1c2ccccc2[n+]2nc3c(cc12)-c1cccc2cccc-3c12.[Br-].[Br-]`, the Activity entry in data set [1] and in data set [2] was “Non-toxic” each time. For the same compound, the inhibition at 10 µM in data set [5] worked out at 39%. For the same compound, the viability at 24 h, 10 µM in [8] stood at 25.3%.
Consider `Cc1cc2occ(CN(C)CCN(C)Cc3cn(-c4cccc(C(F)(F)F)c4)c4ccccc34)c(=O)c2cc1C`, for which, in data set [11], the IC50 worked out at 22 µM.
On to `Cc1cc(C)cc(CS(=O)(=O)[O-])c1.O=C(O)Cn1c2ccccc2[n+]2nc3c(cc12)-c1cccc2cccc-3c12`, for which the Activity result in data set [1] and in data set [2] was “Non-toxic” in each case. For the same compound, the inhibition at 0.1 µM in data set [12] is 9%. For the same compound, the inhibition at 1 µM in data set [3] is 12%. Further, the inhibition at 5 µM in data set [4] came to 7%. Besides, in data set [5], the inhibition at 10 µM turned out to be 45%. Also, the inhibition at 25 µM in [6] turned out to be 84%. The IC50 in data set [7] came out at 14.6 µM. The viability at 24 h, 10 µM in [8] amounted to 69.9%.
